The results in this text go back to US6403554B2, “Polyunsaturated fatty acid derivatives and their use” (Ardenia Investments Ltd., priority 1998, dated 2002).

The test concerns antibody-forming cells (AFC) in the spleen. Kind of test: Influence of compound on humoral immune response to sheep erythrocytes, C57B1/6 female mice (AFC in spleen, hemagglutinins). Format: in vivo. The note with it: for Amount of antibody-forming cells per 10^6 spleen cells / Amount of antibody-forming cells per spleen / Effect on relative amount of AFC (per 10^6 spleen cells) / Effect on total AFC amount (per spleen): 5th day; for Amount of antibody-forming cells per 10^6 spleen cells / Amount of antibody-forming cells per spleen: M ± SEM; for Effect on relative amount of AFC (per 10^6 spleen cells) / Effect on total AFC amount (per spleen) / Effect on hemagglutinin titers: vs control; for Spleen index: with SRBC i.p. As for the experimental part: The increase was calculated as compared with the amount of cells in the animals immunised only with sheep erythrocytes.
0.15 ml of compound 10 was administered intravenously to 6 mice females of CS7B1/6 line (weight 18-22 g) in doses of 45.5, 91 and 136.5 μg of compound 10 per capita for each testing group according to the dose. Simultaneously, a suspension of 5·10^7 sheep erythrocytes was injected intraperitoneally (0.2 ml per capita). Mice in the control group were injected intravenously with equal volume of saline. The effects of compound 10 on humoral immune response were analyzed both by counting the quantity of AFC in the spleen according to Cunningham (per 10^6 spleen cells and per spleen) and estimating the titers of hemagglutining antibodies in serum of the animals (Cunningham A. J., Nature, 1965, Vol.207, No 5001. P.1106-1107), while the titers of hemagglutinating antibodies were evaluated according to litterature (Evans J. et al., Cell, 1974; Vol 3., p.153-158, Feizi T., Menger E., Transfusion, 1970, Vol. 10, p.33-35,).
(§1) 0.15 ml of compound 11 was administered intravenously to 6 female mice of the C57B1/6 line (weight 18-22 g) in doses of 45.5, 91 and 136.5 μg of compound 11 per capita for each testing group according to the dose. Simultaneously, a suspension of 5·10^7 sheep erytrocytes was injected intraperitoneally (0.2 ml per capita). Mice in the control group were injected intravenously with an equal volume of saline. The effects of compound 11 on humoral immune response was analysed both by counting the quantity of AFC in the spleen according to Cunningham (per 10^6 spleen cells and per spleen) and estimating the titers of hemagglutining antibodies in serum of the animals.
as §1, with “12” for “11”, “erythrocytes” for “erytrocytes”, “analyzed” for “analysed”
as §1, with “compound 8” for “compound 11”, “sheep erythrocytes” for “sheep erytrocytes”, “Mice of” for “Mice in”, “response were analyzed” for “response was analysed”
0.15 ml of compound 3 was administered intravenously to 6 female mice of the C57B1/6 line (weight 18-22 g) in doses of 45.5, 91 and 136.5 μg of compound 3 per capita for each testing group according to the dose. Simultaneously, a suspension of 5·10^7 sheep erytrocytes was injected intraperitoneally (0.2 ml per capita). Mice of the control group were injected intravenously with equal volume of saline.

On to `CC/C=C\C/C=C\C/C=C\C/C=C\C/C=C\C/C=C\CCC(=O)N[C@H](C(=O)O)[C@@H](C)OP(=O)(O)O` [Compound 11, N-(cis-4,7,10,13,16,19-docosahexaenoyl)-O-phospho-L-threonine], for which, for the setting “45.5 μg/mouse, i.v.”, the “Amount of antibody-forming cells per 10^6 spleen cells” value is recorded as 676.8±77.1 cells per 10^6 spleen cells, the “Amount of antibody-forming cells per spleen” value is on record as 85.9±8.3 × 10^3, the “Effect on relative amount of AFC (per 10^6 spleen cells)” value is recorded as −15.3 p > 0.05% and the “Effect on total AFC amount (per spleen)” value is recorded as −15.0 p > 0.05%. Where the note is “45.5 μg/mouse, i.v.”, the “Effect on hemagglutinin titers” value was found to be 0% and the Spleen index is 6.2 ± 0.2 10^−3. For the setting “91 μg/mouse, i.v.”, the “Amount of antibody-forming cells per 10^6 spleen cells” value is given as 896.8±111.8 cells per 10^6 spleen cells, the “Amount of antibody-forming cells per spleen” value is 111.2±11.8 × 10^3, the “Effect on relative amount of AFC (per 10^6 spleen cells)” value is “+12.2 p > 0.05%” and the “Effect on total AFC amount (per spleen)” value is reported as “+10.0 p > 0.05%”. For the setting “91 μg/mouse, i.v.”, the “Effect on hemagglutinin titers” value is listed as −3.6 p > 0.05% and the Spleen index was 6.9 ± 0.5 10^−3. For the same molecule, for the setting “136.5 μg/mouse”, the immunostimulating action result was “marked immunostimulating action”. Where the note is “136.5 μg/mouse, i.v.”, the “Amount of antibody-forming cells per 10^6 spleen cells” value is recorded as 1336.5±59.0 cells per 10^6 spleen cells, the “Amount of antibody-forming cells per spleen” value is on record as 182.5±7.8 × 10^3 and the Spleen index is 7.5 ± 0.4 10^−3. This molecule also showed an Amount of hemagglutinins (136.5 μg/mouse, i.v., serum) of 9.3±0.2 Log2 T. For the same molecule, the Immunogenic activity result (45.5 and 91 μg/mouse) is “no immunogenic activity”.

As to `CC1=C(/C=C/C(C)=C/C=C/C(C)=C/C(=O)N[C@@H](Cc2ccc(OP(=O)(O)O)cc2)C(=O)O)C(C)(C)CCC1` (stereo in doubt) [Compound 4, N-(all-trans-Retinoyl)-O-phospho-L-tyrosine], the Immunogenic activity entry (45.5 μg/mouse) was “no immunogenic activity”. In addition, for the setting “45.5 μg/mouse, i.v.”, the “Amount of antibody-forming cells per 10^6 spleen cells” value was 405.0±47.9 cells per 10^6 spleen cells, the “Amount of antibody-forming cells per spleen” value is 55.0±6.7 × 10^3, the “Effect on relative amount of AFC (per 10^6 spleen cells)” value is given as −0.3 p >0.05% and the “Effect on total AFC amount (per spleen)” value is reported as −8.9 p > 0.05%. Moreover, where the note is “45.5 μg/mouse, i.v.”, the “Effect on hemagglutinin titers” value is listed as −3.2 p > 0.05% and the Spleen index is 6.6 ± 0.5 10^−3. Also, under “91 μg/mouse”, the “immunostimulating effect in vivo in micelle form” value is listed as “display immunostimulating effect in vivo”. For the same molecule, under “91 μg/mouse, i.v.”, the “Amount of antibody-forming cells per 10^6 spleen cells” value is recorded as 692.9±44.8 cells per 10^6 spleen cells, the “Amount of antibody-forming cells per spleen” value is 87.6±4.3 × 10^3, the “Effect on hemagglutinin titers” value is on record as “+4.8 p > 0.05%” and the Spleen index is 6.3 ± 0.4 10^−3. For the setting “136.5 μg/mouse, i.v.”, the “Amount of antibody-forming cells per 10^6 spleen cells” value was 1354.3±99.9 cells per 10^6 spleen cells and the “Amount of antibody-forming cells per spleen” value is listed as 138.9±10.0 × 10^3. In addition, the immunostimulating action result (91 and 136.5 μg/mouse) is listed as “high immunostimulating action”.
